How the values were obtained:
Assay in all cases: MIC of compounds alone and combined with antibacterials, broth microdilution (CLSI)
Format in all cases: cell-based
[1] = system: Citrobacter freundii (CFR) isolates
Method in brief: (§1)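 Antibacterial MICs in combination were determined at every compound concentration tested, alongside compound MICs alone. Bacteria grew in cation-adjusted Mueller-Hinton broth starting from 5.10^5 CFU/mL, incubated at 35° C for 16-20 h, and endpoints were the lowest concentrations with no visible growth.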

[2] = system: Enterobacter aerogenes (EAE) isolates
Method in brief: as §1

[3] = system: Klebsiella oxytoca (KOX) isolates
Method in brief: as §1

[4] = system: Morganella morganii (MMO) isolates
Method in brief: as §1

Compound: C=CC1=C(C(=O)O)N2C(=O)[C@@H](NC(=O)/C(=N\OCC(=O)O)c3csc(N)n3)[C@H]2SC1 [FIX, Cefixime]
- MIC ATB in combination ([1]; CFR UFR10, AF2 @ 8 μg/mL): <0.25 µg/mL
- MIC ATB in combination ([1]; CFR UFR10, AF3 @ 8 μg/mL): <=0.25 μg/mL
- MIC ATB in combination ([1]; CFR UFR10, CLA @ 4 μg/mL): 32 µg/mL
- MIC ATB in combination ([1]; CFR UFR11, AF2 @ 8 μg/mL): 16 µg/mL
- MIC ATB in combination ([1]; CFR UFR11, AF3 @ 8 μg/mL): 32 µg/mL
- MIC ATB in combination ([1]; CFR UFR11, CLA @ 4 μg/mL): 32 µg/mL
- MIC ATB in combination ([1]; CFR UFR37, AF2 @ 8 μg/mL): <=0.25 μg/mL
- MIC ATB in combination ([1]; CFR UFR37, AF3 @ 8 μg/mL): <=0.25 μg/mL
- MIC ATB in combination ([1]; CFR UFR37, CLA @ 4 μg/mL): >128 µg/mL
- MIC ATB in combination ([1]; CFR UFR83, AF2 @ 8 μg/mL): >128 µg/mL
- MIC ATB in combination ([1]; CFR UFR83, AF3 @ 8 μg/mL): >128 µg/mL
- MIC ATB in combination ([1]; CFR UFR83, CLA @ 4 μg/mL): >128 µg/mL
- MIC ATB in combination ([1]; CFR UFR146, AF2 @ 8 μg/mL): 2 µg/mL
- MIC ATB in combination ([1]; CFR UFR146, AF3 @ 8 μg/mL): 1 µg/mL
- MIC ATB in combination ([1]; CFR UFR146, CLA @ 4 μg/mL): 64 µg/mL
- MIC ATB in combination ([1]; CFR UFR248, AF2 @ 8 μg/mL): <0.25 µg/mL
- MIC ATB in combination ([1]; CFR UFR248, AF3 @ 8 μg/mL): <=0.25 μg/mL
- MIC ATB in combination ([1]; CFR UFR248, CLA @ 4 μg/mL): 4 µg/mL
- MIC ATB in combination ([1]; CFR UFR249, AF2 @ 8 μg/mL): <=0.25 μg/mL
- MIC ATB in combination ([1]; CFR UFR249, AF3 @ 8 μg/mL): <=0.25 μg/mL
- MIC ATB in combination ([1]; CFR UFR249, CLA @ 4 μg/mL): 2 µg/mL
- MIC ATB in combination ([1]; CFR UFR250, AF2 @ 8 μg/mL): <0.25 µg/mL
- MIC ATB in combination ([1]; CFR UFR250, AF3 @ 8 μg/mL): <0.25 µg/mL
- MIC ATB in combination ([1]; CFR UFR250, CLA @ 4 μg/mL): 2 µg/mL
- MIC ([1]; strain CFR UFR10, genotype OXA-48): >128 µg/mL
- MIC ([1]; strain CFR UFR11, genotype TEM-1, OXA-1, OXA-48): 32 µg/mL
- MIC ([1]; strain CFR UFR37, genotype TEM-1, CTX-M-15, NDM-1): >128 µg/mL
- MIC ([1]; strain CFR UFR83, genotype TEM-3, AmpC): >128 µg/mL
- MIC ([1]; strain CFR UFR146, genotype TEM-1, KPC-2): 64 µg/mL
- MIC ([1]; strain CFR UFR147, genotype TEM-1, CTX-M-15, OXA-1, OXA-181, OXA-10, OXA-9, NDM-1, ArmA, dfrA12, aadA2, antibiotic alone): >128 µg/mL
- MIC ATB in combination ([1]; strain CFR UFR147, with AF2 @ 8 μg/mL): <0.25 µg/mL
- MIC ATB in combination ([1]; strain CFR UFR147, with AF3 @ 8 μg/mL): <0.25 µg/mL
- MIC ATB in combination ([1]; strain CFR UFR147, with CLA @ 4 μg/mL): >128 µg/mL
- MIC ([1]; strain CFR UFR148, genotype TEM-1, TEM-2, CTX-M-15, NDM-1, antibiotic alone): >128 µg/mL
- MIC ATB in combination ([1]; strain CFR UFR148, with AF2 @ 8 μg/mL): <0.25 µg/mL
- MIC ATB in combination ([1]; strain CFR UFR148, with AF3 @ 8 μg/mL): <0.25 µg/mL
- MIC ATB in combination ([1]; strain CFR UFR148, with CLA @ 4 μg/mL): >128 µg/mL
- MIC ([1]; strain CFR UFR248, genotype CTX-M-15): >128 µg/mL
- MIC ([1]; strain CFR UFR249, genotype TEM-1, CTX-M-15): >128 µg/mL
- MIC ([1]; strain CFR UFR250, compound alone): >128 µg/mL
- MIC ([1]; strain CFR UFR250, genotype TEM-1, SHV-28, CTX-M-15): >128 µg/mL
- MIC ([1]; strain CFR UFR251, genotype SHV-11, VIM-1, antibiotic alone): >128 µg/mL
- MIC ATB in combination ([1]; strain CFR UFR251, with AF2 @ 8 μg/mL): <0.25 µg/mL
- MIC ATB in combination ([1]; strain CFR UFR251, with AF3 @ 8 μg/mL): <0.25 µg/mL
- MIC ATB in combination ([1]; strain CFR UFR251, with CLA @ 4 μg/mL): >128 µg/mL
- MIC ([1]; strain CFR UFR252, genotype VIM-2, antibiotic alone): >128 µg/mL
- MIC ATB in combination ([1]; strain CFR UFR252, with AF2 @ 8 μg/mL): >128 µg/mL
- MIC ATB in combination ([1]; strain CFR UFR252, with AF3 @ 8 μg/mL): >128 µg/mL
- MIC ATB in combination ([1]; strain CFR UFR252, with CLA @ 4 μg/mL): >128 µg/mL
- MIC ([1]; strain CFR UFR253, genotype TEM-1, SHV-12, OXA-48): >128 µg/mL
- MIC ATB in combination ([1]; strain CFR UFR253, with AF2 @ 8 μg/mL): 1 µg/mL
- MIC ATB in combination ([1]; strain CFR UFR253, with AF3 @ 8 μg/mL): 8 µg/mL
- MIC ATB in combination ([1]; strain CFR UFR253, with CLA @ 4 μg/mL): >128 µg/mL
- MIC ([1]; strain CFR UFR254, genotype VEB-1b, OXA-48, qnrA): 32 µg/mL
- MIC ATB in combination ([1]; strain CFR UFR254, with AF2 @ 8 μg/mL): <=0.25 μg/mL
- MIC ATB in combination ([1]; strain CFR UFR254, with AF3 @ 8 μg/mL): 0.5 µg/mL
- MIC ATB in combination ([1]; strain CFR UFR254, with CLA @ 4 μg/mL): 16 µg/mL
- MIC ATB in combination ([2]; EAE 49469, AF2 @ 8 μg/mL): <0.25 µg/mL
- MIC ATB in combination ([2]; EAE 49469, AF3 @ 8 μg/mL): <0.25 µg/mL
- MIC ATB in combination ([2]; EAE 49469, CLA @ 4 μg/mL): >128 µg/mL
- MIC ATB in combination ([2]; EAE 200261, AF2 @ 8 μg/mL): 8 µg/mL
- MIC ATB in combination ([2]; EAE 200261, AF3 @ 8 μg/mL): <0.25 µg/mL
- MIC ATB in combination ([2]; EAE 200261, CLA @ 4 μg/mL): >128 µg/mL
- MIC ATB in combination ([2]; EAE UFR199, AF2 @ 8 μg/mL): 0.5 µg/mL
- MIC ATB in combination ([2]; EAE UFR199, AF3 @ 8 μg/mL): <=0.25 μg/mL
- MIC ATB in combination ([2]; EAE UFR199, CLA @ 4 μg/mL): 16 µg/mL
- MIC ATB in combination ([2]; EAE UFR201, AF2 @ 8 μg/mL): <0.25 µg/mL
- MIC ATB in combination ([2]; EAE UFR201, AF3 @ 8 μg/mL): <0.25 µg/mL
- MIC ATB in combination ([2]; EAE UFR201, CLA @ 4 μg/mL): <=0.25 μg/mL
- MIC ATB in combination ([2]; EAE UFR202, AF2 @ 8 μg/mL): 16 µg/mL
- MIC ATB in combination ([2]; EAE UFR202, AF3 @ 8 μg/mL): 4 µg/mL
- MIC ATB in combination ([2]; EAE UFR207, AF2 @ 8 μg/mL): <0.25 µg/mL
- MIC ATB in combination ([2]; EAE UFR207, AF3 @ 8 μg/mL): <0.25 µg/mL
- MIC ATB in combination ([2]; EAE UFR207, CLA @ 4 μg/mL): 1 µg/mL
- MIC ATB in combination ([2]; EAE UFR213, AF2 @ 8 μg/mL): 16 µg/mL
- MIC ATB in combination ([2]; EAE UFR213, AF3 @ 8 μg/mL): <=0.25 μg/mL
- MIC ([2]; strain EAE 49469, genotype AmpC): >128 µg/mL
- MIC ([2]; strain EAE 200261, genotype TEM-x, AmpC): >128 µg/mL
- MIC ([2]; strain EAE UFR199, compound alone): >1024 µg/mL
- MIC ([2]; strain EAE UFR199, genotype TEM-1b, SHV-12, KPC-2, OXA-9): >1024 µg/mL
- MIC ([2]; strain EAE UFR201, genotype TEM-1, SHV-12, CTX-M-15): >128 µg/mL
- MIC ([2]; strain EAE UFR202, genotype TEM-24): >128 µg/mL
- MIC ([2]; strain EAE UFR213, genotype TEM-24): >128 µg/mL
- MIC ATB in combination ([3]; KOX UFR21, AF2 @ 8 μg/mL): 2 µg/mL
- MIC ATB in combination ([3]; KOX UFR21, AF3 @ 8 μg/mL): 4 µg/mL
- MIC ATB in combination ([3]; KOX UFR173, AF2 @ 8 μg/mL): <=0.25 μg/mL
- MIC ATB in combination ([3]; KOX UFR173, AF3 @ 8 μg/mL): <=0.25 μg/mL
- MIC ATB in combination ([3]; KOX UFR173, CLA @ 4 μg/mL): 4 µg/mL
- MIC ATB in combination ([3]; KOX UFR223, AF2 @ 8 μg/mL): <0.25 µg/mL
- MIC ATB in combination ([3]; KOX UFR223, AF3 @ 8 μg/mL): <0.25 µg/mL
- MIC ATB in combination ([3]; KOX UFR223, CLA @ 4 μg/mL): <=0.25 μg/mL
- MIC ATB in combination ([3]; KOX UFR224, AF2 @ 8 μg/mL): <0.25 µg/mL
- MIC ATB in combination ([3]; KOX UFR224, AF3 @ 8 μg/mL): <0.25 µg/mL
- MIC ATB in combination ([3]; KOX UFR224, CLA @ 4 μg/mL): 8 µg/mL
- MIC ([3]; strain KOX UFR21, genotype TEM-1, CTX-M-15, OXA-48): >128 µg/mL
- MIC ([3]; strain KOX UFR173, genotype OXY2-2): 16 µg/mL
- MIC ([3]; strain KOX UFR223, genotype SHV-11, OXA-48): <=0.125 μg/mL
- MIC ([3]; strain KOX UFR224, genotype CTX-M-15, OXA-48): >128 µg/mL
- MIC ATB in combination ([4]; MMO 200321, AF2 @ 8 μg/mL): 1 µg/mL
- MIC ATB in combination ([4]; MMO 200321, AF3 @ 8 μg/mL): 1 µg/mL
- MIC ATB in combination ([4]; MMO 200321, CLA @ 4 μg/mL): 32 µg/mL
- MIC ATB in combination ([4]; MMO UFR144, AF2 @ 8 μg/mL): 1 µg/mL
- MIC ATB in combination ([4]; MMO UFR144, AF3 @ 8 μg/mL): 0.5 µg/mL
- MIC ATB in combination ([4]; MMO UFR144, CLA @ 4 μg/mL): 32 µg/mL
- MIC ATB in combination ([4]; MMO UFR240, AF2 @ 8 μg/mL): <=0.25 μg/mL
- MIC ATB in combination ([4]; MMO UFR240, AF3 @ 8 μg/mL): <=0.25 μg/mL
- MIC ATB in combination ([4]; MMO UFR240, CLA @ 4 μg/mL): 8 µg/mL
- MIC ATB in combination ([4]; MMO UFR241, AF2 @ 8 μg/mL): 2 µg/mL
- MIC ATB in combination ([4]; MMO UFR241, AF3 @ 8 μg/mL): 0.5 µg/mL
- MIC ATB in combination ([4]; MMO UFR241, CLA @ 4 μg/mL): 32 µg/mL
- MIC ATB in combination ([4]; MMO UFR242, AF2 @ 8 μg/mL): <=0.25 μg/mL
- MIC ATB in combination ([4]; MMO UFR242, AF3 @ 8 μg/mL): 1 µg/mL
- MIC ATB in combination ([4]; MMO UFR242, CLA @ 4 μg/mL): 64 µg/mL
- MIC ATB in combination ([4]; MMO UFR243, AF2 @ 8 μg/mL): 0.5 µg/mL
